From ChEMBL document CHEMBL4334471, “Discovery of 1,8-disubstituted-[1,2,3]triazolo[4,5-c]quinoline derivatives as a new class of Hippo signaling pathway inhibitors” (Bioorg Med Chem Lett, 2019) come the findings set out here.

The target of assay [1] is Ephrin type-A receptor 3 (Homo sapiens) (UniProt P29320). Nature of the assay: Inhibition of recombinant human EphA3 (578 to end residues) assessed as residual activity at 10 uM using poly(Glu, Tyr) 4:1 as substrate at 40 mins in presence of [gamma-33ATP] by scintillation counting based radiometry assay relative to control.
For assay [2], the target named is Protein kinase C epsilon type (Homo sapiens) (UniProt Q02156). Nature of the assay: Inhibition of recombinant human PKCepsilon (2 to end residues) assessed as residual activity at 10 uM using ERMRPRKRQGSVRRRV as substrate incubated for 40 mins in presence of [gamma33P]ATP by scintillation counting based radiometry assay relative to control.
The target in assay [3] is Serine/threonine-protein kinase 35 (Homo sapiens) (UniProt Q8TDR2). Briefly: Inhibition of recombinant full length human CLIK1 assessed as residual activity at 10 uM using RSRSRSRSRSRS as substrate incubated 40 mins in presence of [gamma-33ATP] by scintillation counting based radiometry assay relative to control.
In assay [4] the target is Protein-tyrosine kinase 2-beta (Homo sapiens) (UniProt Q14289). Nature of the assay: Inhibition of recombinant human full length PYK2 assessed as residual activity at 10 uM using poly(Glu, Tyr) 4:1 as substrate incubated for 40 mins in presence of [gamma33P]ATP by scintillation counting based radiometry assay relative to control.
Assay [5] deals with Tyrosine-protein kinase JAK3 (Homo sapiens) (UniProt P52333). Briefly: Inhibition of human JAK3 (781 to end residues) assessed as residual activity at 10 uM using GGEEEEYFELVKKKK as substrate after 40 mins by [gamma-33ATP] radiometric assay relative to control.
Assay [6] has as its target CDK4/Cyclin D3 (Homo sapiens) (UniProt P11802+P30281). Nature of the assay: Inhibition of recombinant full length human CDK4/CyclinD3 assessed as residual activity at 10 uM using Rb fragment as substrate incubated for 40 mins in presence of [gamma-33ATP] by scintillation counting based radiometry assay relative to control. In kind it is protein-complex assay.
Assay [7] concerns the target Serine/threonine-protein kinase Nek2 (Homo sapiens) (UniProt P51955). Briefly: Inhibition of recombinant full-length human NEK2 assessed as residual activity at 10 uM using myelin basic protein as substrate measured after 40 mins in presence of [gamma33P]ATP by scintillation counting based radiometry assay relative to control.
Assay [8] addresses Serine/threonine-protein kinase Chk2 (Homo sapiens) (UniProt O96017). Briefly: Inhibition of recombinant human CHK2 (5 to end residues) assessed as residual activity at 10 uM using KKKVSRSGLYRSPSMPENLNRPR as substrate incubated for 40 mins in presence of [gamma-33ATP] by scintillation counting based radiometry assay relative to control.
Assay [9] deals with Proto-oncogene tyrosine-protein kinase receptor Ret (Homo sapiens), P07949 [V804M]. Briefly: Inhibition of recombinant human Ret V804M mutant (658 to end residues) assessed as residual activity at 10 uM using KKKVSRSGLYRSPSMPENLNRPR as substrate incubated for 40 mins in presence of [gamma33P]ATP by scintillation counting based radiometry assay relative to control.
Assay [10] has as its target Mitogen-activated protein kinase kinase kinase 2 (Homo sapiens) (UniProt Q9Y2U5). Nature of the assay: Inhibition of recombinant full length human MEKK2 assessed as residual activity at 10 uM using myelin basic protein as substrate incubated for 40 mins in presence of [gamma-33ATP by scintillation counting based radiometry assay relative to control.
The test system of assay [11] is Ribosomal protein S6 kinase beta-1 (Homo sapiens), P23443 [T412E]. Briefly: Inhibition of recombinant human p70S6K T412E mutant (1 to 421 residues) assessed as residual activity at 10 uM using KKRNRTLTV as substrate measured after 40 mins in presence of [gamma33P]ATP by scintillation counting based radiometry assay relative to control.
The target of assay [12] is Wee1-like protein kinase 2 (Homo sapiens) (UniProt P0C1S8). Briefly: Inhibition of recombinant full length human WEE1b assessed as residual activity at 10 uM using LSNLYHQGKFLQTFCGSPLYRRR as substrate incubated for 40 mins in presence of [gamma33P]ATP by scintillation counting based radiometry assay relative to control.
Assay [13] deals with Serine/threonine-protein kinase VRK1 (Homo sapiens) (UniProt Q99986). Nature of the assay: Inhibition of recombinant human VRK1 assessed as residual activity at 10 uM in presence of [gamma33P]ATP by scintillation counting based radiometry assay relative to control.
Assay [14] has as its target Tyrosine-protein kinase HCK (Homo sapiens) (UniProt P08631). Nature of the assay: Inhibition of human HCK activated (230 to 497 residues) assessed as residual activity at 10 uM using GGMEDIYFEFMGGKKK as substrate after 40 mins by [gamma-33ATP] radiometric assay relative to control.
The target in assay [15] is 3-phosphoinositide-dependent protein kinase 1 (Homo sapiens) (UniProt O15530). Nature of the assay: Inhibition of recombinant human PDK1 (52 to end residues) assessed as residual activity at 10 uM using PDKtide as substrate incubated for 40 mins in presence of [gamma33P]ATP by scintillation counting based radiometry assay relative to control.
For assay [16], the target named is Cyclin-dependent kinase 13/Cyclin-K (Homo sapiens) (UniProt Q14004+O75909). Nature of the assay: Inhibition of recombinant full length human CDK13/cyclinK assessed as residual activity at 10 uM using RSRSRSRSRSRSR as substrate incubated for 40 mins in presence of [gamma-33ATP] by scintillation counting based radiometry assay relative to control. It is filed as protein-complex assay.

Assay [17] deals with Vascular endothelial growth factor receptor 2 (Homo sapiens) (UniProt P35968). Nature of the assay: Inhibition of human KDR (790 to end residues) assessed as residual activity at 10 uM using myelin basic protein as substrate after 40 mins by [gamma-33ATP] radiometric assay relative to control.
In assay [18] the target is CDC7/Cyclin B1 (Homo sapiens) (UniProt P14635+O00311). Briefly: Inhibition of recombinant full length human CD7/CyclinB1 assessed as residual activity at 10 uM using Histone H1 as substrate incubated for 40 mins in presence of [gamma-33ATP] by scintillation counting based radiometry assay relative to control. It is filed as protein-complex assay.
For assay [19], the target named is Tyrosine-protein kinase Lyn (Homo sapiens) (UniProt P07948). Nature of the assay: Inhibition of recombinant human Lyn assessed as residual activity at 10 uM using poly(Glu, Tyr) 4:1 as substrate after 40 mins in presence of [gamma-33ATP] by scintillation counting based radiometry assay relative to control.
For assay [20], the system named is Glycogen synthase kinase-3 beta (Homo sapiens), P49841 [UNDEFINED MUTATION]. Briefly: Inhibition of human GSK-3beta H350L mutant (2 to end residues) assessed as residual activity at 10 uM using phospho GS2 peptide as substrate after 40 mins by [gamma-33ATP] radiometric assay relative to control.
For assay [21], the system named is Serine/threonine-protein kinase Chk2 (Homo sapiens), O96017 [I157T]. Briefly: Inhibition of recombinant human CHK2 I157T mutant (5 to end residues) assessed as residual activity at 10 uM using KKKVSRSGLYRSPSMPENLNRPR as substrate incubated for 40 mins in presence of [gamma-33ATP] by scintillation counting based radiometry assay relative to control.
Serine/threonine-protein kinase Chk2 (Homo sapiens), O96017 [I157T], sequence (O96017 whole entry I157T): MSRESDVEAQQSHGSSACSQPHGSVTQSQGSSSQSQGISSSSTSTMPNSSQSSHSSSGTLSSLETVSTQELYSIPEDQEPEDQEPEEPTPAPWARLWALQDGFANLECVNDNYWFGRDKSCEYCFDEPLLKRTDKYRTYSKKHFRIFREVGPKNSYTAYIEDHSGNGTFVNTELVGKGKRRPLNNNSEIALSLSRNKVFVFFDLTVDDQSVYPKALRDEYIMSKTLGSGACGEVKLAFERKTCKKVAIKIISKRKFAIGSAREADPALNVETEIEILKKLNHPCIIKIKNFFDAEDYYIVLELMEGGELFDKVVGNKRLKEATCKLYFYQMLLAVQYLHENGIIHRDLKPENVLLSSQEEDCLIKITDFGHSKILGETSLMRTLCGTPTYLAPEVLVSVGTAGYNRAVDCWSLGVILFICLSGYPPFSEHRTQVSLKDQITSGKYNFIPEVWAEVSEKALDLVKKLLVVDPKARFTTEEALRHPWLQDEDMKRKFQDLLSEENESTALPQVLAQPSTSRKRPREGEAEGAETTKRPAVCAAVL

Serine/threonine-protein kinase Chk2 (Homo sapiens), sequence (O96017 whole entry): as the sequence (O96017 whole entry I157T) above, with T157I counted along it
Wee1-like protein kinase 2 (Homo sapiens), sequence (P0C1S8 whole entry, looked up): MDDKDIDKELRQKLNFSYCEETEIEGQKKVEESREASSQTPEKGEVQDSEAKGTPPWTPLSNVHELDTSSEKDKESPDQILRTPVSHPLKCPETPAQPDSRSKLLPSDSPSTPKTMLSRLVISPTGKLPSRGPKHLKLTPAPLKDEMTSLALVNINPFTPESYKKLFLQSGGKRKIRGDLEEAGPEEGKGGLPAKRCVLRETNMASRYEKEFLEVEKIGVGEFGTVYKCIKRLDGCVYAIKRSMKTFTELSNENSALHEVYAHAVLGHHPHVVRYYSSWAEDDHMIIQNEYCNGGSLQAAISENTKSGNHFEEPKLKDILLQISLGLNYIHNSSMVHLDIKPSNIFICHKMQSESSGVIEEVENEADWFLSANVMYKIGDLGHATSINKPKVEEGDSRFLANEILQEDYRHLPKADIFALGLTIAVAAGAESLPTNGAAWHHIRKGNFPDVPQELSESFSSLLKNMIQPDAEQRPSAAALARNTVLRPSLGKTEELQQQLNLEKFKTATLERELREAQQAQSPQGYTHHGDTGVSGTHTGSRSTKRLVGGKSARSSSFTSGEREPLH
Serine/threonine-protein kinase 35 (Homo sapiens), sequence (Q8TDR2 whole entry): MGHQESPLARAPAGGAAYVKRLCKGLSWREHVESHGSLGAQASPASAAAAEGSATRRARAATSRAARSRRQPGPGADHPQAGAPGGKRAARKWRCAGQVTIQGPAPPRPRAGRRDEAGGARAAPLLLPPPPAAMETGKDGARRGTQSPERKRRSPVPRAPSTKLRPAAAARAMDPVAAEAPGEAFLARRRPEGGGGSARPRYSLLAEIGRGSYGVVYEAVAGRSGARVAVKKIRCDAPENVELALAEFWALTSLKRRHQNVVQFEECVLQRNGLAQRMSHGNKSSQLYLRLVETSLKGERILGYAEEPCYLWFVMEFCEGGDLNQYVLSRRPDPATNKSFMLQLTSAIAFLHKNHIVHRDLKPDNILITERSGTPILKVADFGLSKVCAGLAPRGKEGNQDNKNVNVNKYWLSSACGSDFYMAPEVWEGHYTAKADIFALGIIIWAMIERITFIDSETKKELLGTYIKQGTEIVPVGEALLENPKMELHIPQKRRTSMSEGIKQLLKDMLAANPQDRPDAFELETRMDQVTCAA
Vascular endothelial growth factor receptor 2 (Homo sapiens), sequence (P35968 whole entry): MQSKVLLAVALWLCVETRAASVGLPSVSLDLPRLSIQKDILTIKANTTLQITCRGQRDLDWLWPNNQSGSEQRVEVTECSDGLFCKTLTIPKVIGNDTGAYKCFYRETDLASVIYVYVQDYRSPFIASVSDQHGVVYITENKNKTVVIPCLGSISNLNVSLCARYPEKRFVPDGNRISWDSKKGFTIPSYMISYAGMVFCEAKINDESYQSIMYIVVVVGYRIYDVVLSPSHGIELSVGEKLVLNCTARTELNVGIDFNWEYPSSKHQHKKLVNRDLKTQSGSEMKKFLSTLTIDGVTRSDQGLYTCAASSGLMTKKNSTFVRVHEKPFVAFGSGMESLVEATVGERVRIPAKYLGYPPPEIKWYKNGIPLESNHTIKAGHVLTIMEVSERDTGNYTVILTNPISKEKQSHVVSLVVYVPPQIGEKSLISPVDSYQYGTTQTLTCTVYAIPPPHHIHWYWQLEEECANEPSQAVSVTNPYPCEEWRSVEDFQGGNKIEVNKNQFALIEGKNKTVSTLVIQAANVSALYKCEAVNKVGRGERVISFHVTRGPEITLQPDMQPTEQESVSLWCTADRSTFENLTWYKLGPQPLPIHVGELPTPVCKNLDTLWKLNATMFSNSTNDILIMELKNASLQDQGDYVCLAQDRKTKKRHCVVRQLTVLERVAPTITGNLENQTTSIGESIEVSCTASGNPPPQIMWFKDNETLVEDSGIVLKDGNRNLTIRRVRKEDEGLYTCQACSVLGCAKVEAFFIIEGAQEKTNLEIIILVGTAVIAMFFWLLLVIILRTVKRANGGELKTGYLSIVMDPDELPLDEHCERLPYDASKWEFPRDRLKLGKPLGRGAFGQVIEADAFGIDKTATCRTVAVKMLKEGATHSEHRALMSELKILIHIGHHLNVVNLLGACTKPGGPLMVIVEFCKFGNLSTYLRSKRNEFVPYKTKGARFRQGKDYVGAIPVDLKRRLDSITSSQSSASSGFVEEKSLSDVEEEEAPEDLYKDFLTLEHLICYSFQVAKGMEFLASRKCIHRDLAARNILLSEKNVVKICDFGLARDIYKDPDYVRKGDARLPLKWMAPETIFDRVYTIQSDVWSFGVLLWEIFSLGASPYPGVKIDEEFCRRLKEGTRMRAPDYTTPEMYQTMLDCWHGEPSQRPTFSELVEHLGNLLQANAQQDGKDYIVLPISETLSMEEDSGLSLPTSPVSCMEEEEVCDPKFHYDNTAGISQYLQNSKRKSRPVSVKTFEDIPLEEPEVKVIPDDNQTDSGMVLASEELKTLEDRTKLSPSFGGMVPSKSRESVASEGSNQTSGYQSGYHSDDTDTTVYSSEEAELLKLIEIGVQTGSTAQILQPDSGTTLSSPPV
CDC7/Cyclin B1 (Homo sapiens), sequence (O00311 whole entry, looked up): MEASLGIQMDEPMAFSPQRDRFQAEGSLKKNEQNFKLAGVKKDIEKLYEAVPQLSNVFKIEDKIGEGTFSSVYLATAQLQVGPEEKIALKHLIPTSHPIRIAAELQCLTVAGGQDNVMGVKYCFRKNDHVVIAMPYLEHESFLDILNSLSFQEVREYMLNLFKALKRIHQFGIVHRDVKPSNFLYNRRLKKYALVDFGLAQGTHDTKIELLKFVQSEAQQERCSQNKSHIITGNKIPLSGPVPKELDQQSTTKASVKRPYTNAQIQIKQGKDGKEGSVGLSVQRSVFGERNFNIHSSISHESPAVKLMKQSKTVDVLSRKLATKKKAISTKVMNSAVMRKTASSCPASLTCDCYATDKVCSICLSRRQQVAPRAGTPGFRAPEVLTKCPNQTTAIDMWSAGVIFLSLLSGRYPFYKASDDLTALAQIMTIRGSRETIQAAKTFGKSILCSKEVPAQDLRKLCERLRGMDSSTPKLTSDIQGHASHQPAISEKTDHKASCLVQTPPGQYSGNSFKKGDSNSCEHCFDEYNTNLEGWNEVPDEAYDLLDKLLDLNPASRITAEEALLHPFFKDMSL
CDC7/Cyclin B1 (Homo sapiens), sequence (P14635 whole entry, looked up): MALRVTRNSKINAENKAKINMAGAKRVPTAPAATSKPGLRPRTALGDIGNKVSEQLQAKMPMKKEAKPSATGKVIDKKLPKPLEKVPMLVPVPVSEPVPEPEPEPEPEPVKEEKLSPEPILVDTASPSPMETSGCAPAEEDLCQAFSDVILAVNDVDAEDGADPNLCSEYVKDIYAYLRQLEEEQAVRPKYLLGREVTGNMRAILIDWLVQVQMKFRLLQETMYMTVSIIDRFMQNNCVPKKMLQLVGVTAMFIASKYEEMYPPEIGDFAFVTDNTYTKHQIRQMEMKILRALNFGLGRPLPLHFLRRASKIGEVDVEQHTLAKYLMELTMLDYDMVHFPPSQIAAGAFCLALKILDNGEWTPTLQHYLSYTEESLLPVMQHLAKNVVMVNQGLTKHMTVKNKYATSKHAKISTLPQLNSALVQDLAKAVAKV
Protein-tyrosine kinase 2-beta (Homo sapiens), sequence (Q14289 whole entry, looked up): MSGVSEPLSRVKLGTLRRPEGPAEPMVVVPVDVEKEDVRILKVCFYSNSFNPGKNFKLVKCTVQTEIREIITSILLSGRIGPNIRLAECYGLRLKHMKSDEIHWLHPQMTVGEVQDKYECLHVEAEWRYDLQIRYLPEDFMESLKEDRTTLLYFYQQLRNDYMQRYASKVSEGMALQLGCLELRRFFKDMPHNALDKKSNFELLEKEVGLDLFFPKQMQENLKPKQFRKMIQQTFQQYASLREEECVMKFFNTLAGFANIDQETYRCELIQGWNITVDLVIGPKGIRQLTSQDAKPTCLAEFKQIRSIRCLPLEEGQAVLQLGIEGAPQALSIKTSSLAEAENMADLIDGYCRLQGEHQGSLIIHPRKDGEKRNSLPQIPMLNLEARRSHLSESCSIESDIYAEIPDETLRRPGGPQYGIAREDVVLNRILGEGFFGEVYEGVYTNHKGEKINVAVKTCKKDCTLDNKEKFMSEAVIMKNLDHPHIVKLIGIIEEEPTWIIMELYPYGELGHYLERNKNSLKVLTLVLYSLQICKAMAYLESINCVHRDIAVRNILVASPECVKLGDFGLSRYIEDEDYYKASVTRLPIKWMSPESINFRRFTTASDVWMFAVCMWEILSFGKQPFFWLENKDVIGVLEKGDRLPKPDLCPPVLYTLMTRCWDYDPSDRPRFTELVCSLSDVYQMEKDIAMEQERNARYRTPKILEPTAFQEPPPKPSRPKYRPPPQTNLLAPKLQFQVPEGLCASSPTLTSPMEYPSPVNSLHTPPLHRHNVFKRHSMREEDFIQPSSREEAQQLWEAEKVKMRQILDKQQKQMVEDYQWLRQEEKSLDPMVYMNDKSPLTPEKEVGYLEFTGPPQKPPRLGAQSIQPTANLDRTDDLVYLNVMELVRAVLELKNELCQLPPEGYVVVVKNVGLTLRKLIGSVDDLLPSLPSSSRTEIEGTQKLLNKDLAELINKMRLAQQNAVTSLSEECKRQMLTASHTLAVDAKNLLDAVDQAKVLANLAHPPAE

As for `C[C@@H](c1ccccc1)n1nnc2cnc3ccc(-c4cnc5[nH]ccc5c4)cc3c21`, the Activity in [1] was determined as 80%; in assay [2], 97%; in assay [3] it was 75%; in [4], 59%; in assay [5], 43%; in [6], 74%. In addition, the Activity in assay [7] worked out at 75%; in assay [8], 57%; in assay [9], 69%; in [10], 107%; in assay [11], 54%; in assay [12], 90%. Also, the Activity in [13] came to 96%; in [14], 21%; in [15] it was 80%; in assay [16], 84%; in assay [17], 63%; in assay [18] it was 63%. Moreover, the Activity is 3% in assay [19], 81% in [20] and 59% in assay [21].
